According to publication PMC6253998, “Ring-substituted 4-Hydroxy-1H-quinolin-2-ones: Preparation and Biological Activity” (Molecules, 2009):
≈ marks a conversion by molar mass, not a printed value. Like-named read-outs stand apart in the source and are kept apart here.

Experiments:
[1] = Lipophilicity HPLC determination (capacity factor k / log k); format: physicochemical; conditions: RP-HPLC, C18 column, MeOH 55.0% / H2O 45.0%, isocratic
Protocol: Hydrophobicities (log P/Clog P values) of the compounds 1-12 were calculated using two commercially available programs and also measured by means of the reversed phase high performance liquid chromatography (RP-HPLC) method for lipophilicity measurement. The procedure was performed under isocratic conditions with methanol as an organic modifier in the mobile phase using an end-capped non-polar C18 stationary RP column. The capacity factors k were determined and subsequent log k values were calculated.
The HPLC separation module Waters Alliance 2695 XE and Waters Photodiode Array Detector 2996 (Waters Corp., Milford, MA, U.S.A.) were used. A Symmetry® C18 5 μm, 4.6 × 250 mm, Part No. WAT054275, (Waters Corp., Milford, MA, U.S.A.) chromatographic column was used. The HPLC separation process was monitored by Millennium32® Chromatography Manager Software, Waters 2004 (Waters Corp., Milford, MA, U.S.A.). The mixture of MeOH p.a. (55.0%) and H2O-HPLC – Mili-Q Grade (45.0%) was used as a mobile phase. The total flow of the column was 0.9 mL/min, injection 30 μL, column temperature 30 °C and sample temperature 10 °C. The detection wavelength 210 nm was chosen. The KI methanolic solution was used for the dead time (TD) determination. Retention times (tR) were measured in minutes. The capacity factors k were calculated using the Millennium32® Chromatography Manager Software according to formula k = (tR - tD) / tD, where tR is the retention time of the solute, whereas tD denotes the dead time obtained via an unretained analyte. Log k, calculated from the capacity factor k, is used as the lipophilicity index converted to log P scale.

spinach chloroplasts = assay: Inhibition of oxygen evolution rate (OER) / photosynthetic electron transport in spinach chloroplasts; format: biochemical, Spinacia oleracea L.; conditions: for IC50: DCPIP photoreduction, pH 7.2
Protocol: Chloroplasts were prepared from spinach (Spinacia oleracea L.) according to Masarovicova and Kralova. The inhibition of photosynthetic electron transport (PET) in spinach chloroplasts was determined spectrophotometrically (Genesys 6, Thermo Scientific, U.S.A.) using an artificial electron acceptor 2,6-dichlorophenol-indophenol (DCPIP) according to Kralova et al. and the rate of photosynthetic electron transport was monitored as a photoreduction of DCPIP. The measurements were carried out in phosphate buffer (0.02 mol/L, pH 7.2) containing sucrose (0.4 mol/L), MgCl2 (0.005 mol/L) and NaCl (0.015 mol/L). The chlorophyll content was 30 mg/L in these experiments and the samples were irradiated (~100 W/m^2) from 10 cm distance with a halogen lamp (250 W) using a 4 cm water filter to prevent warming of the samples (suspension temperature 22 °C). The studied compounds were dissolved in DMSO due to their limited water solubility. […] The inhibitory efficiency of the studied compounds was expressed by IC50 values, i.e. by molar concentration of the compounds causing 50% decrease in the oxygen evolution rate relative to the untreated control.

[2] = test system: Trichosporon beigelii 1188; assay: In vitro antifungal broth microdilution test; format: cell-based; conditions: Trichosporon beigelii, 1188, RPMI 1640, pH 7.0, 35 °C, read-out: MIC/IC80 TB
Protocol: The broth microdilution test was used for the assessment of in vitro antifungal activity of the synthesized compounds against Candida albicans ATCC 44859 (CA), Candida tropicalis 156 (CT), Candida krusei ATCC 6258 (CK), Candida glabrata 20/I (CG), Trichosporon beigelii 1188 (TB), Aspergillus fumigatus 231 (AF), Absidia corymbifera 272 (AC), and Trichophyton mentagrophytes 445 (TM). Fluconazole (FLU) was used as the standard of a clinically used antimycotic drug. The procedure was performed with twofold dilution of the compounds in RPMI 1640 (Sevapharma a.s., Prague, Czech Republic) buffered to pH 7.0 with 0.165 mol of 3-morpholino-propane-1-sulfonic acid (MOPS, Sigma, Germany). The final concentrations of the compounds ranged from 500 to 0.975 μmol/l. Drug–free controls were included. The MIC was defined as an 80% or greater (IC80) reduction of growth in comparison with the control. The values of MICs were determined after 24 and 48 h of static incubation at 35 °C. For T. mentagrophytes, the final MICs were determined after 72 and 120 h of incubation.

[3] = test system: Candida albicans ATCC 44859; assay: In vitro antifungal broth microdilution test; format: cell-based; conditions: Candida albicans
Protocol: (§1) Fluconazole (FLU) was used as the standard of a clinically used antimycotic drug. The procedure was performed with twofold dilution of the compounds in […]., Prague, Czech Republic) buffered to pH 7.0 with 0.165 mol of 3-morpholino-propane-1-sulfonic acid (MOPS, Sigma, Germany). […] Drug-free controls were included. The MIC was defined as an 80% or greater (IC80) reduction of growth in comparison with the control.

Candida glabrata 20/I = assay: In vitro antifungal broth microdilution test; format: cell-based; conditions: Nakaseomyces glabratus, 20/I
Protocol: as §1

Candida tropicalis 156 = assay: In vitro antifungal broth microdilution test; format: cell-based
Protocol: as §1

Absidia corymbifera 272 = assay: In vitro antifungal broth microdilution test; format: cell-based
Protocol: as §1

[4] = test system: Aspergillus fumigatus 231; assay: In vitro antifungal broth microdilution test; format: cell-based
Protocol: as §1

Candida krusei ATCC 6258 = assay: In vitro antifungal broth microdilution test; format: cell-based; conditions: Pichia kudriavzevii
Protocol: as §1

[5] = test system: Trichophyton mentagrophytes 445; assay: In vitro antifungal broth microdilution test; format: cell-based
Protocol: as §1

[6] = ATCC44859, 24h, RPMI 1640, pH 7.0, 35 °C, read-out: MIC/IC80 CA
[7] = ATCC44859, 48h, RPMI 1640, pH 7.0, 35 °C, read-out: MIC/IC80 CA
[8] = 24h, RPMI 1640, pH 7.0, 35 °C, read-out: MIC/IC80 CG
[9] = 48h, RPMI 1640, pH 7.0, 35 °C, read-out: MIC/IC80 CG
[10] = Candida tropicalis, 156, 24h, RPMI 1640, pH 7.0, 35 °C, read-out: MIC/IC80 CT
[11] = Candida tropicalis, 156, 48h, RPMI 1640, pH 7.0, 35 °C, read-out: MIC/IC80 CT
[12] = Lichtheimia corymbifera, 272, 24h, RPMI 1640, pH 7.0, 35 °C, read-out: MIC/IC80 AC
[13] = Lichtheimia corymbifera, 272, 48h, RPMI 1640, pH 7.0, 35 °C, read-out: MIC/IC80 AC
[14] = Aspergillus fumigatus, 231, 24h, RPMI 1640, pH 7.0, 35 °C, read-out: MIC/IC80 AF
[15] = Aspergillus fumigatus, 231, 48h, RPMI 1640, pH 7.0, 35 °C, read-out: MIC/IC80 AF
[16] = ATCC6258, 24h, RPMI 1640, pH 7.0, 35 °C, read-out: MIC/IC80 CK
[17] = ATCC6258, 48h, RPMI 1640, pH 7.0, 35 °C, read-out: MIC/IC80 CK
[18] = Trichophyton mentagrophytes, 445, 72h, RPMI 1640, pH 7.0, 35 °C, read-out: MIC/IC80 TM
[19] = Trichophyton mentagrophytes, 445, 120h, RPMI 1640, pH 7.0, 35 °C, read-out: MIC/IC80 TM

| SMILES | log k [1] | IC50 (spinach chloroplasts) [µM] | MIC ([2]; 24h) [µM] | MIC ([2]; 48h) [µM] | MIC [3, 6] [µM] | MIC [3, 7] [µM] | MIC (Candida glabrata 20/I; [8]) [µM] | MIC (Candida glabrata 20/I; [9]) [µM] | MIC (Candida tropicalis 156; [10]) [µM] | MIC (Candida tropicalis 156; [11]) [µM] | MIC (Absidia corymbifera 272; [12]) [µM] | MIC (Absidia corymbifera 272; [13]) [µM] | MIC [4, 14] [µM] | MIC [4, 15] [µM] | MIC (Candida krusei ATCC 6258; [16]) [µM] | MIC (Candida krusei ATCC 6258; [17]) [µM] | MIC [5, 18] [µM] | MIC [5, 19] [µM] | further results |
| --- | --- | --- | --- | --- | --- | --- | --- | --- | --- | --- | --- | --- | --- | --- | --- | --- | --- | --- | --- |
| O=c1cc(O)c2ccccc2[nH]1 [Compound 1, 4-Hydroxyquinolin-2(1H)-one] | 0.0664 | 925 | > 500 | > 500 |  |  |  |  |  |  |  |  |  |  |  |  |  |  | MIC ([3]; ATCC44859, 24 h, pH 7, read-out: MIC/IC80 CA): > 500 µM; MIC ([3]; ATCC44859, 48 h, pH 7, read-out: MIC/IC80 CA): > 500 µM; MIC (Candida glabrata 20/I; 24 h, pH 7, read-out: MIC/IC80 CG): > 500 µM; MIC (Candida glabrata 20/I; 48 h, pH 7, read-out: MIC/IC80 CG): > 500 µM; MIC (Candida tropicalis 156; Candida tropicalis, 156, 24 h, pH 7, read-out: MIC/IC80 CT): > 500 µM; MIC (Candida tropicalis 156; Candida tropicalis, 156, 48 h, pH 7, read-out: MIC/IC80 CT): > 500 µM; MIC (Absidia corymbifera 272; Lichtheimia corymbifera, 272, 24 h, pH 7, read-out: MIC/IC80 AC): > 500 µM; MIC (Absidia corymbifera 272; Lichtheimia corymbifera, 272, 48 h, pH 7, read-out: MIC/IC80 AC): > 500 µM; MIC ([4]; Aspergillus fumigatus, 231, 24 h, pH 7, read-out: MIC/IC80 AF): > 500 µM; MIC ([4]; Aspergillus fumigatus, 231, 48 h, pH 7, read-out: MIC/IC80 AF): > 500 µM; MIC (Candida krusei ATCC 6258; ATCC6258, 24 h, pH 7, read-out: MIC/IC80 CK): > 500 µM; MIC (Candida krusei ATCC 6258; ATCC6258, 48 h, pH 7, read-out: MIC/IC80 CK): > 500 µM; MIC ([5]; Trichophyton mentagrophytes, 445, 72 h, pH 7, read-out: MIC/IC80 TM): > 500 µM; MIC ([5]; Trichophyton mentagrophytes, 445, 120 h, pH 7, read-out: MIC/IC80 TM): > 500 µM |
| Cc1ccc2[nH]c(=O)cc(O)c2c1 [Compound 2, 4-Hydroxy-6-methylquinolin-2(1H)-one] | 0.3307 | 157 | > 500 | > 500 | > 500 | > 500 | > 500 | > 500 | > 500 | > 500 | > 500 | > 500 | > 500 | > 500 | > 500 | > 500 | > 500 | > 500 |  |
| O=C(O)c1ccc2[nH]c(=O)cc(O)c2c1O [Compound 3, 4,5-Dihydroxy-2-oxo-1,2-dihydroquinoline-6-carboxylic acid] | 0.0002 | 346 | 250 (≈ 55.3 µg/mL) | > 500 | 125 (≈ 27.6 µg/mL) | 125 (≈ 27.6 µg/mL) | 250 (≈ 55.3 µg/mL) | 250 (≈ 55.3 µg/mL) | 500 (≈ 111 µg/mL) | > 500 | > 500 | > 500 | > 500 | > 500 | > 500 | > 500 | > 500 | > 500 |  |
| O=c1[nH]c2ccccc2c(O)c1[N+](=O)[O-] [Compound 5, 4-Hydroxy-3-nitroquinolin-2(1H)-one] | 0.4052 | 510 | > 500 | > 500 | > 500 | > 500 | > 500 | > 500 | > 500 | > 500 | > 500 | > 500 | > 500 | > 500 | > 500 | > 500 | > 500 | > 500 | OER inhibition effectiveness relative to compound 1 (spinach chloroplasts): approximately twice as effective as compound 1 |
| Nc1c(O)c2ccccc2[nH]c1=O [Compound 6, 3-Amino-4-hydroxyquinolin-2(1H)-one] | 0.0004 | 775 | > 500 | > 500 | > 500 | > 500 | > 500 | > 500 | > 500 | > 500 | > 500 | > 500 | > 500 | > 500 | > 500 | > 500 | > 500 | > 500 |  |
| O=C(/C=C/c1ccccc1)Nc1c(O)c2ccccc2[nH]c1=O [Compound 7, (2E)-N-(4-Hydroxy-2-oxo-1,2-dihydroquinolin-3-yl)-3-phenylprop-2-enamide] | 0.0128 | 916 | > 125 | > 125 | > 125 | > 125 | > 125 | > 125 | > 125 | > 125 | > 125 | > 125 | > 125 | > 125 | > 125 | > 125 | > 125 | > 125 |  |
| OC(Cn1cncn1)(Cn1cncn1)c1ccc(F)cc1F [FLU, Fluconazole, reference compound] |  |  | 0.24 (≈ 0.0735 µg/mL) | 0.48 (≈ 0.147 µg/mL) | 0.06 (≈ 0.0184 µg/mL) | 0.12 (≈ 0.0368 µg/mL) | 0.98 (≈ 0.3 µg/mL) | 3.91 (≈ 1.2 µg/mL) | 0.12 (≈ 0.0368 µg/mL) | > 125 | > 125 | > 125 | > 125 | > 125 | 3.91 (≈ 1.2 µg/mL) | 15.6 (≈ 4.78 µg/mL) | 1.95 (≈ 0.597 µg/mL) | 3.91 (≈ 1.2 µg/mL) |  |
